Numbers after ± are expanded uncertainties.
Key:
[1] = 101 kPa, Liquid; for mass density: Vibrating tube method; for speed of sound: sound velocity cell
[2] = xn = mol fraction of the nth substance listed; settings: 101 kPa, Liquid, x2 = 0; for mass density: Vibrating tube method; for speed of sound: sound velocity cell

**Q.** For `CO` [methanol], which mass density ([1]; 288.15 K) is on record?
**A.** 796.694 ± 0.14 kg/m3

**Q.** And the speed of sound ([1]; 288.15 K)?
**A.** 1136.3 ± 1.1 m/s

**Q.** What about the mass density ([1]; 290.65 K) of the same molecule?
**A.** 793.768 ± 0.14 kg/m3

**Q.** What about the speed of sound ([1]; 290.65 K) of the same molecule?
**A.** 1127.7 ± 1.1 m/s

**Q.** And the mass density ([1]; 293.15 K)?
**A.** 791.418 ± 0.14 kg/m3

**Q.** And the speed of sound ([1]; 293.15 K)?
**A.** 1119.5 ± 1.1 m/s

**Q.** And the mass density ([1]; 295.65 K)?
**A.** 789.066 ± 0.14 kg/m3

**Q.** What about the speed of sound ([1]; 295.65 K) of the same molecule?
**A.** 1111.3 ± 1.1 m/s

**Q.** And the mass density ([1]; 298.15 K)?
**A.** 786.71 ± 0.14 kg/m3

**Q.** And the speed of sound ([1]; 298.15 K)?
**A.** 1103 ± 1.1 m/s

**Q.** And the mass density ([1]; 300.65 K)?
**A.** 784.349 ± 0.14 kg/m3

**Q.** And the speed of sound ([1]; 300.65 K)?
**A.** 1094.7 ± 1.1 m/s

**Q.** What about the mass density ([1]; 303.15 K) of the same molecule?
**A.** 781.983 ± 0.14 kg/m3

**Q.** What about the speed of sound ([1]; 303.15 K) of the same molecule?
**A.** 1086.5 ± 1.1 m/s

**Q.** What about the mass density ([1]; 305.65 K) of the same molecule?
**A.** 779.612 ± 0.14 kg/m3

**Q.** What about the speed of sound ([1]; 305.65 K) of the same molecule?
**A.** 1078.3 ± 1.1 m/s

**Q.** And the mass density ([1]; 308.15 K)?
**A.** 777.234 ± 0.14 kg/m3

**Q.** What about the speed of sound ([1]; 308.15 K) of the same molecule?
**A.** 1070.2 ± 1.1 m/s

**Q.** And the mass density ([1]; 310.65 K)?
**A.** 774.851 ± 0.14 kg/m3

**Q.** What about the speed of sound ([1]; 310.65 K) of the same molecule?
**A.** 1062.1 ± 1.1 m/s

**Q.** What about the mass density ([1]; 313.15 K) of the same molecule?
**A.** 772.458 ± 0.14 kg/m3

**Q.** What about the speed of sound ([1]; 313.15 K) of the same molecule?
**A.** 1054 ± 1.1 m/s

**Q.** And the mass density ([1]; 315.65 K)?
**A.** 770.058 ± 0.15 kg/m3

**Q.** And the speed of sound ([1]; 315.65 K)?
**A.** 1045.9 ± 1.1 m/s

**Q.** And the mass density ([1]; 318.15 K)?
**A.** 767.647 ± 0.15 kg/m3

**Q.** And the speed of sound ([1]; 318.15 K)?
**A.** 1037.9 ± 1.1 m/s

**Q.** What about the mass density ([1]; 320.65 K) of the same molecule?
**A.** 765.229 ± 0.15 kg/m3

**Q.** And the speed of sound ([1]; 320.65 K)?
**A.** 1029.9 ± 1.1 m/s

**Q.** What about the mass density ([1]; 323.15 K) of the same molecule?
**A.** 762.809 ± 0.15 kg/m3

**Q.** And the speed of sound ([1]; 323.15 K)?
**A.** 1022 ± 1.1 m/s

**Q.** For `CCO` [ethanol] + CC(=O)[O-].[NH3+]CCO, which mass density ([2]; 288.15 K) is on record?
**A.** 793.828 ± 0.14 kg/m3

**Q.** What about the speed of sound ([2]; 288.15 K) of the same molecule?
**A.** 1177.8 ± 1.1 m/s

**Q.** What about the mass density ([2]; 290.65 K) of the same molecule?
**A.** 791.692 ± 0.14 kg/m3

**Q.** What about the speed of sound ([2]; 290.65 K) of the same molecule?
**A.** 1169.2 ± 1.1 m/s

**Q.** And the mass density ([2]; 293.15 K)?
**A.** 789.553 ± 0.14 kg/m3

**Q.** And the speed of sound ([2]; 293.15 K)?
**A.** 1160.6 ± 1.1 m/s

**Q.** And the mass density ([2]; 295.65 K)?
**A.** 787.411 ± 0.14 kg/m3

**Q.** And the speed of sound ([2]; 295.65 K)?
**A.** 1152 ± 1.1 m/s

**Q.** What about the mass density ([2]; 298.15 K) of the same molecule?
**A.** 785.261 ± 0.14 kg/m3

**Q.** And the speed of sound ([2]; 298.15 K)?
**A.** 1143.5 ± 1.1 m/s

**Q.** And the mass density ([2]; 300.65 K)?
**A.** 783.106 ± 0.14 kg/m3

**Q.** What about the speed of sound ([2]; 300.65 K) of the same molecule?
**A.** 1135 ± 1.1 m/s

**Q.** And the mass density ([2]; 303.15 K)?
**A.** 780.944 ± 0.14 kg/m3

**Q.** What about the speed of sound ([2]; 303.15 K) of the same molecule?
**A.** 1126.5 ± 1.1 m/s

**Q.** And the mass density ([2]; 305.65 K)?
**A.** 778.773 ± 0.14 kg/m3

**Q.** And the speed of sound ([2]; 305.65 K)?
**A.** 1118.1 ± 1.1 m/s

**Q.** What about the mass density ([2]; 308.15 K) of the same molecule?
**A.** 776.593 ± 0.14 kg/m3

**Q.** What about the speed of sound ([2]; 308.15 K) of the same molecule?
**A.** 1109.7 ± 1.1 m/s

**Q.** And the mass density ([2]; 310.65 K)?
**A.** 774.405 ± 0.14 kg/m3

**Q.** What about the speed of sound ([2]; 310.65 K) of the same molecule?
**A.** 1101.2 ± 1.1 m/s

**Q.** And the mass density ([2]; 313.15 K)?
**A.** 772.204 ± 0.14 kg/m3

**Q.** What about the speed of sound ([2]; 313.15 K) of the same molecule?
**A.** 1092.8 ± 1.1 m/s

**Q.** And the mass density ([2]; 315.65 K)?
**A.** 769.995 ± 0.14 kg/m3

**Q.** What about the speed of sound ([2]; 315.65 K) of the same molecule?
**A.** 1084.5 ± 1.1 m/s

**Q.** What about the mass density ([2]; 318.15 K) of the same molecule?
**A.** 767.77 ± 0.15 kg/m3

**Q.** What about the speed of sound ([2]; 318.15 K) of the same molecule?
**A.** 1076.2 ± 1.1 m/s

**Q.** What about the mass density ([2]; 320.65 K) of the same molecule?
**A.** 765.534 ± 0.15 kg/m3

**Q.** What about the speed of sound ([2]; 320.65 K) of the same molecule?
**A.** 1067.9 ± 1.1 m/s

**Q.** And the mass density ([2]; 323.15 K)?
**A.** 763.296 ± 0.15 kg/m3

**Q.** And the speed of sound ([2]; 323.15 K)?
**A.** 1059.6 ± 1.1 m/s

**Q.** Which results are given for `O` [water] + CC(=O)[O-].[NH3+]CCO?
**A.** mass density ([2]; 290.65 K): 998.68 ± 0.068 kg/m3; speed of sound ([2]; 290.65 K): 1474.7 ± 1 m/s; mass density ([2]; 295.65 K): 997.65 ± 0.068 kg/m3; speed of sound ([2]; 295.65 K): 1489.9 ± 1 m/s; mass density ([2]; 300.65 K): 996.37 ± 0.069 kg/m3; speed of sound ([2]; 300.65 K): 1503.4 ± 1 m/s; mass density ([2]; 305.65 K): 994.86 ± 0.069 kg/m3; speed of sound ([2]; 305.65 K): 1515.1 ± 1 m/s; mass density ([2]; 310.65 K): 993.15 ± 0.07 kg/m3; speed of sound ([2]; 310.65 K): 1525 ± 1 m/s; speed of sound ([2]; 313.15 K): 1529.3 ± 1 m/s; mass density ([2]; 315.15 K): 991.24 ± 0.07 kg/m3; speed of sound ([2]; 315.65 K): 1533.2 ± 1 m/s; speed of sound ([2]; 318.15 K): 1536.6 ± 1 m/s; mass density ([2]; 320.65 K): 989.15 ± 0.071 kg/m3; speed of sound ([2]; 320.65 K): 1539.6 ± 1 m/s; mass density ([2]; 323.15 K): 988.04 ± 0.071 kg/m3; speed of sound ([2]; 323.15 K): 1542.1 ± 1 m/s

**Q.** Which mass density ([2]; 288.15 K) does the source give for `CO` [methanol] + CC(=O)[O-].[NH3+]CCO here?
**A.** 796.694 ± 0.14 kg/m3

**Q.** What about the speed of sound ([2]; 288.15 K) of the same molecule?
**A.** 1136.3 ± 1.1 m/s

**Q.** And the mass density ([2]; 290.65 K)?
**A.** 793.768 ± 0.14 kg/m3

**Q.** What about the speed of sound ([2]; 290.65 K) of the same molecule?
**A.** 1127.7 ± 1.1 m/s

**Q.** And the mass density ([2]; 293.15 K)?
**A.** 791.418 ± 0.14 kg/m3

**Q.** And the speed of sound ([2]; 293.15 K)?
**A.** 1119.5 ± 1.1 m/s

**Q.** And the mass density ([2]; 295.65 K)?
**A.** 789.066 ± 0.14 kg/m3

**Q.** And the speed of sound ([2]; 295.65 K)?
**A.** 1111.3 ± 1.1 m/s

**Q.** And the mass density ([2]; 298.15 K)?
**A.** 786.71 ± 0.14 kg/m3

**Q.** And the speed of sound ([2]; 298.15 K)?
**A.** 1103 ± 1.1 m/s

**Q.** And the mass density ([2]; 300.65 K)?
**A.** 784.349 ± 0.14 kg/m3

**Q.** And the speed of sound ([2]; 300.65 K)?
**A.** 1094.7 ± 1.1 m/s

**Q.** What about the mass density ([2]; 303.15 K) of the same molecule?
**A.** 781.983 ± 0.14 kg/m3

**Q.** And the speed of sound ([2]; 303.15 K)?
**A.** 1086.5 ± 1.1 m/s

**Q.** And the mass density ([2]; 305.65 K)?
**A.** 779.612 ± 0.14 kg/m3

**Q.** And the speed of sound ([2]; 305.65 K)?
**A.** 1078.3 ± 1.1 m/s

**Q.** And the mass density ([2]; 308.15 K)?
**A.** 777.234 ± 0.14 kg/m3

**Q.** And the speed of sound ([2]; 308.15 K)?
**A.** 1070.2 ± 1.1 m/s

**Q.** And the mass density ([2]; 310.65 K)?
**A.** 774.851 ± 0.14 kg/m3

**Q.** What about the speed of sound ([2]; 310.65 K) of the same molecule?
**A.** 1062.1 ± 1.1 m/s

**Q.** What about the mass density ([2]; 313.15 K) of the same molecule?
**A.** 772.458 ± 0.14 kg/m3

**Q.** What about the speed of sound ([2]; 313.15 K) of the same molecule?
**A.** 1054 ± 1.1 m/s

**Q.** And the mass density ([2]; 315.65 K)?
**A.** 770.058 ± 0.15 kg/m3

**Q.** What about the speed of sound ([2]; 315.65 K) of the same molecule?
**A.** 1045.9 ± 1.1 m/s

**Q.** What about the mass density ([2]; 318.15 K) of the same molecule?
**A.** 767.647 ± 0.15 kg/m3

**Q.** And the speed of sound ([2]; 318.15 K)?
**A.** 1037.9 ± 1.1 m/s

**Q.** What about the mass density ([2]; 320.65 K) of the same molecule?
**A.** 765.229 ± 0.15 kg/m3

**Q.** What about the speed of sound ([2]; 320.65 K) of the same molecule?
**A.** 1029.9 ± 1.1 m/s

**Q.** What about the mass density ([2]; 323.15 K) of the same molecule?
**A.** 762.809 ± 0.15 kg/m3

**Q.** And the speed of sound ([2]; 323.15 K)?
**A.** 1022 ± 1.1 m/s
